Measurements taken from patent US20240373849A1, “INSECT NEUROPEPTIDE ANALOGUES” (THE UNIVERSITY COURT OF THE UNIVERSITY OF GLASGOW, priority 2020, published 2024).
“And” between values parts separate entries of the source, which are not always exact repeats. Equal values may be shown once. Square brackets hold non-standard residues; d marks the D form. * marks the point of attachment. Guanidyl = -C(=N+Me2)NMe2 on the N-terminal amine (tetramethylguanidyl cap), CN(C)C(=[N+](C)C)*; Benzoyl(4-benzoyl) = O=C(c1ccccc1)c1ccc(C(=O)*)cc1; Palmitoyl = CCCCCCCCCCCCCCCC(=O)*; NMeV = CN[C@H](C(=O)O)C(C)C; NMeA = CN[C@@H](C)C(=O)O; Aib = CC(C)(N)C(=O)O

Experiments:
[1] = test system: Myzus persicae aphids; experiment: Topical application by spraying, Potter Spray Tower (Example 3); format: in vivo; conditions: 10^−5 M; 48 hours post spray
Protocol: Aphids were exposed to test peptides in the absence of additional external stress conditions.
Brassica rapa (Chinese cabbage; Wong Bok) were infested with 30 adult Myzus persicae aphids per plant. Aphids were left at least 2 hours to settle and begin feeding from the host plant.
Potter Spray Tower (Burkard Manufacturing) was ‘primed’ by spraying 1000 μl of liquid coating the inside of the tower. Vehicle spray only (Croda ATPlus UEP 100 LQ-(CQ) 0.1% v/v) was used as a control.
Spray volumes for all solutions were 3000 μl. […] After spraying was completed the plant was allowed to rest on the spray platform for 30 seconds to allow settling of the sprayed chemical.
Post peptide application, each condition was placed into its own individual Bugdorm (Watkins and Doncaster, 44545), to prevent repulsed or displaced aphids moving from one condition to another. Numbers of alive and dead aphids on the plant were counted 48 hours post spray, and the presence of any fresh nymphs noted. Plants were watered prior to spraying but not afterwards to eliminate the possibility of drowning any aphids present or washing off the sprayed liquid.
The vehicle control group was used to determine baseline lethality. Results for neuropeptide analogues were calculated as % lethality in the remaining population after adjustment for the baseline.

[2] = test system: Drosophila suzukii larvae; experiment: Drosophila suzukii larval feeding (Example 8; peptide screening); format: in vivo; design: key to D. suzukii (Sig Diff Grp): A indicates a significant difference in survival compared with control (blank).; B indicates a significant difference in survival compared with scrambled capa1.; C indicates a significant difference in survival compared with scrambled capa2; conditions: for Feeding D. suzukii, % lethality in population after adjustment for baseline: 10^−5 M, 48 hr exposure; for D. suzukii (Mean% Lethality ± SD) / D. suzukii (Sig Diff Grp): Peptide screening, Table 5; for D. suzukii (Mean% Lethality ± SD): blank control 20.33; for D. suzukii (Sig Diff Grp): difference in survival
Protocol: (§1) First to Fourth generations of peptides were produced with varying structures and tested for CAPA receptor agonist activity, and screened for lethality in vivo against D. suzukii and M. persicae as per methods in example 2 and example 8. The top performing peptides were selected and gave rise to the list of CAPA1 and CAPA2 peptides provided above in Table 1 which were then further tested in the following applied examples.
Peptides were tested at concentrations ranging from [10^−4 M] to [10^−7 M] in a final volume of 200 μl of 0.8% agarose containing 0.09% m-Cresol purple pH marker dye (Sigma) and 5% sucrose (Sigma).
Agarose was melted in dH2O, before addition of sucrose and dye. The agarose/dye solution was then allowed to cool to 60° C. 96 well plates (flat-bottomed 3596 TC-plates; Corning) containing 20 μl volumes of neuropeptide per well were prepared, and 180 μl agarose/dye solution dispensed into each well via a Distriman repetitive micro-pipettor (Gilson). Controls contained 20 μl dH2O as a ‘sham’ treatment with 180 μl of the 0.8% agarose/dye solution. Plates were agitated at 800 rpm, to ensure mixing, at 60° C. (Eppendorf Thermomixer C). Plates were then allowed to cool, and agarose/dye solution solidify, prior to use.
Each peptide was assayed with a minimum of 7 to maximum 9 late L2/early L3 Spotted wing Drosophila, Drosophila suzukii, (feeding) larvae per well, minimum n=8 wells per peptide concentration and a minimum n=12 control wells per plate. The selected larvae were first washed 2× in ice cold Drosophila Schneider's liquid medium (ThermoFisher) before insertion into wells to remove extraneous food. After complete insertion of all larvae the plates were covered with breathable sealing membrane for multi-well plates (Sigma).
Larvae were assayed for lethality after 48 hr exposure at 21° C. and findings recorded. During examination the assay plate was kept on ice, to reduce larval locomotor activity (wandering), and larvae in each well were examined using a binocular stereomicroscope (Zeiss).
The water control group was used to determine baseline lethality. Results for neuropeptide analogues were calculated as % lethality in the remaining population after adjustment for the baseline. Results are shown in Tables 7 and 8 below, and in FIG. 1.

[3] = test system: M. persicae; experiment: Feeding of aphids with peptides in artificial diet (Example 2; peptide screening, honeydew); format: in vivo, Myzus persicae
Text: as §1
The aphid feeding protocol was devised according to Sadeghi et al (2009) as explained in example 1. Feeding discs were designed and manufactured as above. A standard sucrose-based artificial diet for M. persicae (30 aphids per chamber, 3 chambers per experiment unless otherwise stated) was produced as described in example 1 (Sadeghi et al, J. Insect Science, 2009) and provided the basal diet to which peptides were added for screening purposes. Peptides were diluted individually in the artificial diet to 10^−5 M. Lethality was scored after up to 120 hours (IRAC guidelines for aphid testing).
Membrane discs were also included to collect ‘honeydew’ secreted by feeding aphids and stained with ninhydrin to observe feeding patterns.
Comparison of purple stain in controls to treated aphids, show there is very little colour on many membranes where peptides were added.
Capa peptides cause mortality in M. persicae via feeding: At 120 hours, AH383 and AH387 peptides induce ˜60% mean (and median) lethality. Although mean lethality is lower with AH270/PEGAH270 (40%), 100% lethality is observed in one sample of 30 insects (AH270); and 90% in at least one sample of each of AH383, AH387 and PEGAH270 (FIG. 3). Note that PEGAH270 is a pegylated form of peptide AH270.

[4] = test system: M. persicae; experiment: Feeding of aphids with peptides in artificial diet (Example 1); format: in vivo, Myzus persicae; conditions: 10^−5 M
Protocol: A standard artificial diet for M. persicae was produced as described in Van Emden (2009) and provided the basal diet to which peptides were added for screening purposes. Peptides were diluted individually in the artificial diet to a pre-determined concentration.
Feeding apparatus were constructed using a set-up developed by Sadeghi et al (2009). For this, a piece of Parafilm was stretched over a Plexiglas ring (h=4 cm, Ø=3 cm) and 100 μl of the artificial diet containing the desired neuropeptide analogue was pipette onto the Parafilm membrane. A second piece of Parafilm, stretched to 4 times the original thickness, was stretched over the original layer, sandwiching the artificial diet between two layers of Parafilm. A strip of Parafilm was wrapped around the circumference of the Plexiglas ring, sealing in the diet. A plastic ring (h=1.2 cm, Ø=3.4 cm) was subsequently placed over the Parafilm layer, creating a walled chamber in which to house test aphids in contact with the Parafilm layer containing the artificial diet. Finally, a small Petri dish (h=1 cm, Ø=3.6 cm), modified for ventilation with net cloth, was placed on top of each feeding apparatus to prevent aphid escape.
To obtain aphids for use in experiments, reproducing anholocyclic adults were placed on individual excised leaves of Chinese cabbage at densities of 5 adults per leaf and allowed to reproduce for 24 h. The stem of each excised leaf was held within a 0.5 mL Eppendorf tube containing water via a punctured hole in the Eppendorf lid, and placed individually within a microcage (L=4 cm, Ø=9.5 cm). Following 24h, adults were removed and resultant first instar nymphs (<1 day old and synchronised in age to within 24h) retained. Nymphs were allowed to develop on the Chinese cabbage for 5 days. On day 5, (3rd instar) nymphs were transferred onto the artificial diet containing a neuropeptide analogue at densities of 1 per feeding chamber and monitored daily until death. Aphids were transferred to fresh artificial diet (containing neuropeptide analogue or water control) every 5 days.
The water control group was used to determine baseline lethality. Results for neuropeptide analogues were calculated as % lethality in the remaining population after adjustment for the baseline.

[5] = test system: bumblebees (Bombus terrestris); experiment: Bumblebee acute oral toxicity test; format: in vivo
Protocol: Oral toxicity against bumblebees (Bombus terrestris) was determined as previously described:
OECD (2017), Test No. 247: Bumblebee, Acute Oral Toxicity Test, OECD Guidelines for the Testing of Chemicals, Section 2, OECD Publishing, Paris, https://doi.org/10.1787/9789264284128-en.
Example data are provided for peptides, AH56, AH257, AH259 in Tables 4, 5 below. […]
Data were acquired for: feeding behaviour—weight of liquid consumed pre- and post-treatment; lethality (days).
There was no negative impact on feeding behaviour from capa peptides. Acute bumblebee toxicity was also assessed for other peptide candidates including: AH270, PEG270. Overall, capa peptides are bee safe.

[6] = Table 11, individual bees, peptide 1 × 10 − 5M or Spirotetramat 25 uM

H-LY-Aib-FARV-NH2 (H-LY[Aib]FARV-NH2; SMILES CC(C)C[C@H](N)C(=O)N[C@@H](Cc1ccc(O)cc1)C(=O)NC(C)(C)C(=O)N[C@@H](Cc1ccccc1)C(=O)N[C@@H](C)C(=O)N[C@@H](CCCNC(=N)N)C(=O)N[C@H](C(N)=O)C(C)C) [AH387]
Spray Aphid, % lethality in population after adjustment for baseline [1]: 12% | Feeding D. suzukii, % lethality in population after adjustment for baseline [2]: 62% | mean lethality ([3]; M. persicae feeding, 10^−5 M, 120 hours): ~60% | lethality observed in one sample of 30 insects ([3]; M. persicae feeding, 10^−5 M, 120 hours, single sample): 90% | Feeding Aphid, % lethality in population after adjustment for baseline [4]: 14% | Feeding Aphid, % lethality in population after adjustment for baseline ([4]; 60 h): 6 (35%

Ac-LYAFPRV-NH2 [AH32]
D. suzukii (Mean% Lethality ± SD) [2]: 41.50% | D. suzukii (Sig Diff Grp) [2]: A

Ac-LVAFPRV-NH2 [AH33]
D. suzukii (Mean% Lethality ± SD) [2]: 43.50% | D. suzukii (Sig Diff Grp) [2]: A

Palmitoyl-LVAFPRV-NH2 (SMILES CCCCCCCCCCCCCCCC(=O)N[C@@H](CC(C)C)C(=O)N[C@H](C(=O)N[C@@H](C)C(=O)N[C@@H](Cc1ccccc1)C(=O)N1CCC[C@H]1C(=O)N[C@@H](CCCNC(=N)N)C(=O)N[C@H](C(N)=O)C(C)C)C(C)C) [AH59]
D. suzukii (Mean% Lethality ± SD) [2]: 44.13% | D. suzukii (Sig Diff Grp) [2]: A

O=[N+]([O-])NC1=NCCN1Cc1ccc(Cl)nc1 [imidacloprid, Imidacloprid, reference compound]
lethality of bumblebees ([5]; 28.3 uM, on day 1): 100% | dead? ([5]; Table 10, individual bees, peptide ×10−5M or imidacloprid 28.3 uM in 50% sucrose, 0.1% ATPlus): 1 | Est weight sucrose consumed post testing/day ([5]; individual bees, peptide ×10−5M or imidacloprid 28.3 uM in 50% sucrose, 0.1% ATPlus): 0.0822 grams/day and 0.0000 grams/day and 0.0495 grams/day and 0.0562 grams/day and 0.2205 grams/day and 0.4394 grams/day | Feeding impacted? (+ve feeding increased post pep, −ve feeding decreased post pep) ([5]; individual bees, post minus pre testing sucrose consumption): −0.1179 grams/day and −0.1209 grams/day and −0.1306 grams/day and −0.3025 grams/day and −0.1495 grams/day and −0.1412 grams/day and 0.0704 grams/day and −0.3396 grams/day and 0.1955 grams/day and −0.2914 grams/day and −0.3507 grams/day | T-test outcome, sucrose consumed Pre vs Post ([5]; per treatment group): Feeding sig reduced

Guanidyl-LV-(Me)A-FPRV-NH2 (Guanidyl-LV[NMeA]FPRV-NH2; SMILES CC(C)C[C@H](NC(N(C)C)=[N+](C)C)C(=O)N[C@H](C(=O)N(C)[C@@H](C)C(=O)N[C@@H](Cc1ccccc1)C(=O)N1CCC[C@H]1C(=O)N[C@@H](CCCNC(=N)N)C(=O)N[C@H](C(N)=O)C(C)C)C(C)C) [AH258]
D. suzukii (Mean% Lethality ± SD) [2]: 47.75% | D. suzukii (Sig Diff Grp) [2]: A

Palmitoyl-LYAFPRV-NH2 (SMILES CCCCCCCCCCCCCCCC(=O)N[C@@H](CC(C)C)C(=O)N[C@@H](Cc1ccc(O)cc1)C(=O)N[C@@H](C)C(=O)N[C@@H](Cc1ccccc1)C(=O)N1CCC[C@H]1C(=O)N[C@@H](CCCNC(=N)N)C(=O)N[C@H](C(N)=O)C(C)C) [AH62]
M. persicae (% Lethality) ([3]; Peptide screening, Table 5): 29%

4-Benzoyl benzoic-LYAFPRV-NH2 ({Benzoyl(4-benzoyl)}-LYAFPRV-NH2; SMILES CC(C)C[C@H](NC(=O)c1ccc(C(=O)c2ccccc2)cc1)C(=O)N[C@@H](Cc1ccc(O)cc1)C(=O)N[C@@H](C)C(=O)N[C@@H](Cc1ccccc1)C(=O)N1CCC[C@H]1C(=O)N[C@@H](CCCNC(=N)N)C(=O)N[C@H](C(N)=O)C(C)C) [AH49]
D. suzukii (Mean% Lethality ± SD) [2]: 41.13% | D. suzukii (Sig Diff Grp) [2]: A

4-Benzoyl benzoic-LVAFPRV-NH2 ({Benzoyl(4-benzoyl)}-LVAFPRV-NH2; SMILES CC(C)C[C@H](NC(=O)c1ccc(C(=O)c2ccccc2)cc1)C(=O)N[C@H](C(=O)N[C@@H](C)C(=O)N[C@@H](Cc1ccccc1)C(=O)N1CCC[C@H]1C(=O)N[C@@H](CCCNC(=N)N)C(=O)N[C@H](C(N)=O)C(C)C)C(C)C) [AH55]
D. suzukii (Mean% Lethality ± SD) [2]: 54.50%

CCOC(=O)OC1=C(c2cc(C)ccc2C)C(=O)N[C@]12CC[C@@H](OC)CC2 [Spirotetramat, reference compound]
Liquid post exposure (weight), Mean ([5]; Table 11, group mean, n=10): 1.109 g | liquid consumed per day post exposure, Mean ([5]; Table 11, group mean, n=10): 0.2773 g | Liquid post exposure (weight) [5, 6]: 0.7878 g and 1.2332 g and 0.2963 g and 1.7853 g and 1.2062 g and 2.1130 g and 0.6196 g and 0.7732 g and 1.3842 g and 0.8924 g | days alive [5, 6]: 4 days | liquid consumed per day post exposure [5, 6]: 0.1970 g and 0.3083 g and 0.0741 g and 0.4463 g and 0.3016 g and 0.5283 g and 0.1549 g and 0.1933 g and 0.3461 g and 0.2231 g

H-LYAFAR-(Me)V-NH2 (H-LYAFAR[NMeV]-NH2; SMILES CC(C)C[C@H](N)C(=O)N[C@@H](Cc1ccc(O)cc1)C(=O)N[C@@H](C)C(=O)N[C@@H](Cc1ccccc1)C(=O)N[C@@H](C)C(=O)N[C@@H](CCCNC(=N)N)C(=O)N(C)[C@H](C(N)=O)C(C)C) [AH380]
Spray Aphid, % lethality in population after adjustment for baseline [1]: 33% | Feeding D. suzukii, % lethality in population after adjustment for baseline [2]: 45% | Feeding Aphid, % lethality in population after adjustment for baseline [4]: 12%

H-Nle-LYAFPRV-NH2 [AH51]
D. suzukii (Mean% Lethality ± SD) [2]: 38.63% | D. suzukii (Sig Diff Grp) [2]: A
